Experiments:
[1] = tested on: persian speedwell; assay: Test Example 4: herbicidal effect by soil treatment (Table 19, symbol R); type: in vivo, Persian speedwell (Veronica persica); conditions: amount of applied herbicide 320 g/ha
Summary of the method: (§1)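 Three weeks of greenhouse growth at 25° C. to 30° C. followed a uniform surface spray of water-diluted emulsion at a predetermined herbicide amount. Seeds had been sown beforehand under about 1.5 cm of sterilized diluvial soil. Grading followed criteria set out in an earlier test.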

[2] = tested on: wild oat; assay: Test Example 4: herbicidal effect by soil treatment (Table 19, symbol I); type: in vivo, wild oat (Avena fatua); conditions: amount of applied herbicide 320 g/ha
Summary of the method: as §1

[3] = tested on: barnyard grass; assay: Test Example 5: herbicidal effect by foliage application, plastic box (Table 20, symbol H); type: in vivo, barnyard grass (Echinochloa crus-galli); conditions: foliage application, 320 g/ha, three weeks after application
Summary of the method: (§2)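 Plants sown in sterilized diluvial soil and grown 14 days in a greenhouse at 25° C to 30° C, then sprayed on the foliage with the compound's emulsion diluted in water to a predetermined herbicide amount. Injury to weeds and crops scored three weeks after application on a visual rating scale.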

[4] = tested on: Italian ryegrass; assay: Test Example 5: herbicidal effect by foliage application, plastic box (Table 20, symbol K); type: in vivo, Italian ryegrass (Lolium multiflorum); conditions: foliage application, 320 g/ha, three weeks after application
Summary of the method: as §2

[5] = tested on: velvetleaf; assay: Test Example 4: herbicidal effect by soil treatment (Table 19, symbol M); type: in vivo, velvetleaf (Abutilon theophrasti); conditions: amount of applied herbicide 320 g/ha
Summary of the method: as §1

[6] = tested on: green foxtail; assay: Test Example 4: herbicidal effect by soil treatment (Table 19, symbol G); type: in vivo, green foxtail (Setaria viridis); conditions: amount of applied herbicide 320 g/ha
Summary of the method: as §1

[7] = tested on: windgrass; assay: Test Example 5: herbicidal effect by foliage application, plastic box (Table 20, symbol L); type: in vivo, windgrass (Apera spica-venti); conditions: foliage application, 320 g/ha, three weeks after application
Summary of the method: as §2

[8] = tested on: Chinese sprangletop; assay: Test Example 3: herbicidal effect by foliage application, Wagner pot (Table 18, symbol D); type: in vivo, chinese sprangletop (Leptochloa chinensis); conditions: for Herbicidal effect on D (Chinese sprangletop), foliage application: amount of applied herbicide 320 g/ha
Summary of the method: (§3)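 Plants were sown in alluvial soil held under 0.1–0.5 cm standing water and grown 14 days in a greenhouse at 25–30 °C. An emulsifiable formulation, water-diluted to the set dose, was then sprayed onto the foliage, and effects were scored three weeks later using previously defined criteria.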

[9] = tested on: Italian ryegrass; assay: Test Example 4: herbicidal effect by soil treatment (Table 19, symbol K); type: in vivo, Italian ryegrass (Lolium multiflorum); conditions: amount of applied herbicide 320 g/ha
Summary of the method: as §1

[10] = tested on: windgrass; assay: Test Example 4: herbicidal effect by soil treatment (Table 19, symbol L); type: in vivo, windgrass (Apera spica-venti); conditions: amount of applied herbicide 320 g/ha
Summary of the method: as §1

[11] = tested on: late watergrass; assay: Test Example 1: herbicidal activity, application before weed generation under submerged conditions (Table 16, symbol A); type: in vivo, late watergrass (Echinochloa oryzicola); conditions: amount of applied herbicide 320 g/ha
Summary of the method: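 Submerged Wagner pots (alluvial soil, 4 cm water) sown with weed seeds and planted with 2.5-leaf rice seedlings; emulsifiable concentrate diluted in water applied to water surface on sowing day. Held in greenhouse at 25-30 °C; injury scored 0-5 by herbicidal rate after three weeks.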

[12] = tested on: velvetleaf; assay: Test Example 5: herbicidal effect by foliage application, plastic box (Table 20, symbol M); type: in vivo, velvetleaf (Abutilon theophrasti); conditions: foliage application, 320 g/ha, three weeks after application
Summary of the method: as §2

[13] = tested on: oval-leafed pondweed; assay: Test Example 2: herbicidal activity, application during weed generation under submerged conditions (Table 17, symbol C); type: in vivo, oval-leafed pondweed (Monochoria vaginalis); conditions: AAH 320 g/ha; application during weed generation, submerged conditions
Summary of the method: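 Steps: fill Wagner pots with alluvial soil; add water to give 4 cm depth; sow the species mixed; grow under glass at 25–30° C.; at 1–2 leaves apply water-diluted emulsion formulation to the water surface at a fixed herbicide amount; score after 3 weeks.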

[14] = tested on: lambsquarters; assay: Test Example 4: herbicidal effect by soil treatment (Table 19, symbol O); type: in vivo, lambsquarters (Chenopodium album); conditions: amount of applied herbicide 320 g/ha
Summary of the method: as §1

[15] = tested on: rice flat sedge; assay: Test Example 3: herbicidal effect by foliage application, Wagner pot (Table 18, symbol E); type: in vivo, rice flat sedge (Cyperus iria); conditions: for Herbicidal effect on E (rice flat sedge), foliage application: amount of applied herbicide 320 g/ha
Summary of the method: as §3

| SMILES | R: persian speedwell, herbicidal effect grade [1] | I: wild oat, herbicidal effect grade [2] | herbicidal effect on barnyard grass (H) [3] | herbicidal effect on Italian ryegrass (K) [4] | M: velvetleaf, herbicidal effect grade [5] | G: green foxtail, herbicidal effect grade [6] | herbicidal effect on windgrass (L) [7] | herbicidal effect on Chinese sprangletop (D) ([8]; 320 g/ha) | K: Italian ryegrass, herbicidal effect grade [9] | L: windgrass, herbicidal effect grade [10] | Herbicidal effect, A: late watergrass [11] | herbicidal effect on velvetleaf (M) [12] | herbicidal effect rating, C: oval-leafed pondweed [13] | O: lambsquarters, herbicidal effect grade [14] | herbicidal effect on rice flat sedge (E) ([15]; 320 g/ha) | Herbicidal effect on D (Chinese sprangletop), foliage application [8] | Herbicidal effect on E (rice flat sedge), foliage application [15] |
| --- | --- | --- | --- | --- | --- | --- | --- | --- | --- | --- | --- | --- | --- | --- | --- | --- | --- |
| CCOc1ccccc1-c1sc2cc(C)c(C)cc2c1-c1c(O)c(C)nn(C)c1=O [5-094] | 3 (Herbicidal rate of 40% or more and less than 70%) | 0 (Herbicidal rate of 5% or less (almost no effect)) | 5 (Herbicidal rate of 90% or more (almost completely withered)) | 5 (Herbicidal rate of 90% or more (almost completely withered)) | 1 (Herbicidal rate of 5% or more and less than 20%) | 4 (Herbicidal rate of 70% or more and less than 90%) | 4 (Herbicidal rate of 70% or more and less than 90%) | 3 (Herbicidal rate of 40% or more and less than 70%) | 3 (Herbicidal rate of 40% or more and less than 70%) | 3 (Herbicidal rate of 40% or more and less than 70%) | 4 (Herbicidal rate of 70% or more and less than 90%) | 4 (Herbicidal rate of 70% or more and less than 90%) | 3 (Herbicidal rate of 40% or more and less than 70%) | 3 (Herbicidal rate of 40% or more and less than 70%) | 4 (Herbicidal rate of 70% or more and less than 90%) |  |  |
| COc1ccccc1-c1sc2c(Br)c(OC)ccc2c1-c1c(O)c(C)nn(C)c1=O [7-002] | 3 (Herbicidal rate of 40% or more and less than 70%) | 0 (Herbicidal rate of 5% or less (almost no effect)) | 5 (Herbicidal rate of 90% or more (almost completely withered)) | 5 (Herbicidal rate of 90% or more (almost completely withered)) | 1 (Herbicidal rate of 5% or more and less than 20%) | 0 (Herbicidal rate of 5% or less (almost no effect)) | 5 (Herbicidal rate of 90% or more (almost completely withered)) |  | 0 (Herbicidal rate of 5% or less (almost no effect)) | 0 (Herbicidal rate of 5% or less (almost no effect)) | 3 (Herbicidal rate of 40% or more and less than 70%) | 4 (Herbicidal rate of 70% or more and less than 90%) | 2 (Herbicidal rate of 20% or more and less than 40%) | 4 (Herbicidal rate of 70% or more and less than 90%) |  | 2 (Herbicidal rate of 20% or more and less than 40%) | 4 (Herbicidal rate of 70% or more and less than 90%) |
| COCCOc1ccc(-c2oc3ccccc3c2-c2c(O)c(C)nn(C)c2=O)cc1 [Compound No. 8-007, 5-hydroxy-4-(2-(4-(2-methoxyethoxy)phenyl)benzofuran-3-yl)-2,6-dimethylpyridazin-3-(2H)-one] | 2 (Herbicidal rate of 20% or more and less than 40%) | 0 (Herbicidal rate of 5% or less (almost no effect)) | 5 (Herbicidal rate of 90% or more (almost completely withered)) | 5 (Herbicidal rate of 90% or more (almost completely withered)) | 3 (Herbicidal rate of 40% or more and less than 70%) | 5 (Herbicidal rate of 90% or more (almost completely withered)) | 0 (Herbicidal rate of 5% or less (almost no effect)) |  | 4 (Herbicidal rate of 70% or more and less than 90%) | 0 (Herbicidal rate of 5% or less (almost no effect)) | 5 (Herbicidal rate of 90% or more (almost completely withered)) | 5 (Herbicidal rate of 90% or more (almost completely withered)) | 3 (Herbicidal rate of 40% or more and less than 70%) | 4 (Herbicidal rate of 70% or more and less than 90%) |  | 3 (Herbicidal rate of 40% or more and less than 70%) | 5 (Herbicidal rate of 90% or more (almost completely withered)) |
| C=CCOc1ccc(-c2oc3ccccc3c2-c2c(O)c(C)nn(C)c2=O)cc1 [8-004] | 3 (Herbicidal rate of 40% or more and less than 70%) | 0 (Herbicidal rate of 5% or less (almost no effect)) | 3 (Herbicidal rate of 40% or more and less than 70%) | 4 (Herbicidal rate of 70% or more and less than 90%) | 2 (Herbicidal rate of 20% or more and less than 40%) | 3 (Herbicidal rate of 40% or more and less than 70%) | 4 (Herbicidal rate of 70% or more and less than 90%) |  | 4 (Herbicidal rate of 70% or more and less than 90%) | 0 (Herbicidal rate of 5% or less (almost no effect)) | 5 (Herbicidal rate of 90% or more (almost completely withered)) | 2 (Herbicidal rate of 20% or more and less than 40%) | 3 (Herbicidal rate of 40% or more and less than 70%) | 2 (Herbicidal rate of 20% or more and less than 40%) |  | 3 (Herbicidal rate of 40% or more and less than 70%) | 4 (Herbicidal rate of 70% or more and less than 90%) |
